Experimental data reported in patent US9060529B2, “Method for treatment of lacto-N-biose-containing solution” (Morinaga Milk Industry Co., Ltd., priority 2010, dated 2015).

Experiments:
[1] = Test Example 1: effect of pH on stability of LNB upon heating (2% LNB in buffer, TLC of decomposed products); format: physicochemical; details: 90° C. for 60 minutes
Protocol: Samples of the LNB powder prepared in the above Production Example 1 were dissolved at a concentration of 2% (by mass, this also applies to all subsequent concentration values) in a 0.1 M citrate buffer solution (pH: 3.0 to 6.0), a 0.1 M phosphate buffer solution (pH: 6.0 to 8.0) or a 0.1 M glycine buffer solution (pH: 8.5 to 10.5), thus preparing samples (liquid compositions containing LNB) 1 to 16 having pH values at intervals of 0.5 across the entire pH range mentioned above.
A 5 mL sample of each of the prepared samples 1 to 16 was dispensed into a test tube and heated at 90° C. for 60 minutes.
Each of the heated samples was cooled to 15° C., and 1 μL was then spotted onto a silica gel thin layer chromatography (TLC) plate. The plate was developed using an 80% acetonitrile solvent, and was then immersed in a 5% sulfuric acid solution and colorized by heating in an oven. The existence or absence of decomposed or denatured products (N-acetylglucosamine dehydrate and galactose) and the amount of those decomposed or denatured products were evaluated visually to determine whether or not decomposition had occurred, and if so, the extent of that decomposition.

[2] = Test Example 2: effect of heating temperature and time on stability of LNB in neutral liquid composition (TLC); format: physicochemical; details: pH 7.0; 90° C. for 0-60 minutes or 65-88° C. for 60 minutes
Protocol: The LNB powder prepared in the above Production Example 1 was dissolved at a concentration of 2% in a 0.1 M phosphate buffer of pH 7.0 to prepare a sample (liquid composition containing LNB).
5 mL samples of the prepared sample were dispensed into test tubes, which were heated at 90° C. for 0, 10, 20, 30, 40, 50 or 60 minutes, or heated at 65, 67, 70, 75, 80, 85 or 88° C. for 60 minutes.
Each of the heated samples was cooled to 15° C., and the same method as that described for Test Example 1 was used to determine whether or not decomposition had occurred, and if so, the extent of that decomposition.

CC(=O)N[C@H]1C(O)O[C@H](CO)[C@@H](O)[C@@H]1O[C@@H]1O[C@H](CO)[C@H](O)[C@H](O)[C@H]1O (stereo partly drawn) [LNB, Lacto-N-biose]
stability of the LNB upon heating (decomposition by TLC) ([1]; pH 5.5 or less, particularly 5.0 or less): stable and underwent almost no decomposition | stability of the LNB upon heating (decomposition by TLC) ([1]; pH 6.0 or higher, particularly 7.0 or higher): significant amounts of decomposed or denatured products were observed | stability of LNB (decomposition by TLC) [2]: decomposed or denatured products were detected under all of the different heat treatment conditions
